Tested on: S. pneumoniae (strain #0100993)
Test: Sub-lethal influenza infection followed by S. pneumoniae co-infection, survival (LD50) after PDE 4 inhibitor pretreatment
Type: in vivo, mice

COc1ccc([C@]2(C#N)CC[C@@H](C(=O)O)CC2)cc1OC1CCCC1 [Ariflo, cis-4-cyano-4-[3-(cyclopentyloxy)-4-methoxyphenyl]cyclohexane-1-carboxylic acid]
LD50 of S. pneumoniae in treated mice (10 mg/kg orally once daily on days 0 to 9, S. pneumoniae challenge IN on day 9, control diluent LD50 72): 252 cfu/mouse | LD50 of S. pneumoniae in treated mice (30 mg/kg orally once daily on days 0 to 9, S. pneumoniae challenge IN on day 9, control diluent LD50 72): 221 cfu/mouse

— patent US6436971B2, “Use of PDE 4-specific inhibitors to reduce the severity of a bacterial infection after a respiratory viral infection” (SmithKline Beecham Corporation, priority 2000, dated 2002)
